Source: patent US4606911A, “Pharmaceutical composition for the prevention of dental caries” (Rohto Pharmaceutical Co. Ltd., priority 1984, dated 1986)
Converted amounts (≈) assume the structure as drawn. “Also recorded” adds a separate entry of the source.

What was measured:
Assay type in all cases: cell-based
[1] = test system: Streptococcus mutans OMZ 176; assay: Antibacterial activity (MIC, growth in BHI medium); design: key to Antibacterial activity (growth): -: grow; ±: slightly grow; +: not grow; settings: for antibacterial activity to S. mutans (in words): text statement
Experimental: (§1) To a test tube was charged 3.8 ml of Brain Heart Infusion (BHI) medium, and 100 μl of a sample solution containing oleanolic, ursolic or glycyrrhetic acid and 100 μl of pre-incubated culture of bacterium selected from those listed below were added thereto. The mixture was incubated at 37° C. and then allowed to stand over night. The extent of the growth of bacterium was observed after two or five days.
Streptococcus mutans OMZ 176

[2] = test system: S. mutans OMZ 176 (serotype d); assay: microbe, parasite or virus in culture
Experimental: The adherence-inhibiting activity of the triterpenes of the formula (I) was measured using an inner wall of a test tube in place of the surface of a tooth.
To 2.9 ml of BHI medium containing 5% sucrose in a test tube (i) are added 30 μl of a sample solution prepared by dissolving a compound of: the formula (I) in H2 O or dimethylsulfoxide (DMSO) and 100 μl of culture medium containing S. mutans OMZ 176 (serotype d) which was preincuvated at 37° C. for 24 hours in BHI medium, and the mixture is incubated at 37° C. for 20 hours, with the test tube being maintained at a slant of 30°. The test tube is revolved gently two or three times and the supernatant is transferred to another test tube (ii). To the first test tube (i) is added 3 ml of 50 mM phosphate buffer (pH 7.5), and the test tube is gently revolved two or three times. The resultant supernatant is transferred to the third test tube (iii). The test tubes (ii) and (iii) are each centrifuged and respective supernatants are discarded. To each of the test tubes (i), (ii) and (iii) is added 3 ml of 0.5M NaOH, and the test tubes are shaken to suspend bacterial cells. Absorbance of the resulting suspension is measured at 660 nm. The absorbances obtained with respect to the test tube (i), (ii) and (iii) are represented by Ab(i), Ab(ii) and Ab(iii), respectively. Ab(i) reflects the amount of the bacterial cells adhered to the wall of the test tube and Ab(ii) and Ab(iii) correspond to the amount of the bacterial cells not adhered to the wall.
The same procedure is repeated using 30 μl of distilled water or DMSO in place of the sample solution to obtain a control. The absorbance of the control is represented by Ab(Cont.).
Adherence percentage of bacteria is calculated from the following equation. [formula]
Adherence inhibitory percentage (AIP) is calculated using the adherence percentage according to the following equation. [formula]
The magnitude of adherence-inhibiting activity of each of the samples is shown, in Table 3, by the use of the following symbols: […]

Esherichia coli K12 = assay: Antibacterial activity (MIC, growth in BHI medium); design: key to Antibacterial activity (growth): -: grow; ±: slightly grow; +: not grow
Experimental: as §1
Esherichia coli K12 (Gram negative)

bacterial cells = assay: Adherence of bacterial cells to the surface of an extracted tooth; settings: extracted tooth suspended in a culture medium containing sucrose
[3] = test system: Staphylococcus aureus 209P; assay: Antibacterial activity (MIC, growth in BHI medium); design: key to Antibacterial activity (growth): -: grow; ±: slightly grow; +: not grow
Experimental: as §1, with “days. The MIC value was determined for each sample and summarized in Table 2. |Staphylococcus aureus […]” for “days.”

[4] = test system: Streptococcus salivarius ATCC 9222; assay: Antibacterial activity (MIC, growth in BHI medium); design: key to Antibacterial activity (growth): -: grow; ±: slightly grow; +: not grow
Experimental: as §1, with “days. The MIC value was determined for each sample and summarized in Table 2. |Streptococcus salivarius ATCC 9222” for “days.”

[5] = test system: Pseudomonas aeruginosa KM338; assay: Antibacterial activity (MIC, growth in BHI medium); design: key to Antibacterial activity (growth): -: grow; ±: slightly grow; +: not grow
Experimental: as §1, with “days. The MIC value was determined for each sample and summarized in Table 2. |Pseudomonas aeruginosa KM338” for “days.”

[6] = Streptococcus mutans, read-out: Adherence-inhibiting activity (AIP)

CC1(C)CC[C@]2(C(=O)O)CC[C@]3(C)C(=CC[C@@H]4[C@@]5(C)CC[C@H](O)C(C)(C)[C@@H]5CC[C@]43C)[C@@H]2C1 [Oleanolic acid]
Antibacterial activity (growth) ([1]; 10 μg/ml): - | antibacterial activity at 10 μg/ml (in words) ([1]; 10 μg/ml): ineffective for exhibiting antibacterial activity | Antibacterial activity (growth) ([1]; 25 μg/ml): - | Antibacterial activity (growth) ([1]; 50 μg/ml): ± | Antibacterial activity (growth) ([1]; 100 μg/ml): ± | Antibacterial activity (growth) ([1]; 200 μg/ml): ± | Antibacterial activity (growth) ([1]; 400 μg/ml): ± | MIC ([1]; Streptococcus mutans, OMZ176, Streptococcus mutans OMZ 176, BHI, 37° C., read-out: MIC (minimum inhibitory concentration)): 400 µg/mL (≈ 876 µM) | antibacterial activity to S. mutans (in words) [1]: also exhibit the selective activity on S. mutans, although the magnitude of the activity is each less than that of glycyrrthetic acid | antibacterial activity to S. mutans (in words) ([1]; listed as oleanolic acid): have both of the adherence-inhibiting activity and the selective antibacterial activity to S. mutans; also recorded: have both activities | minimal effective concentration ([2]; Streptococcus mutans, 20 h, read-out: concentration at which adherence of the bacterial cells is inhibited): 10 µg/mL | inhibition at 10 µg/mL [2, 6]: > 50% | inhibition at 20 µg/mL [2, 6]: > 50% | inhibition at 30 µg/mL [2, 6]: > 50% | inhibition at 50 µg/mL [2, 6]: > 50% | inhibition at 100 µg/mL [2, 6]: > 50% | adherence-inhibiting activity (in words) ([2]; text statement, listed as oleanolic acid): have both of the adherence-inhibiting activity and the selective antibacterial activity to S. mutans; also recorded: have both activities | Antibacterial activity (growth) (Esherichia coli K12; 10 μg/ml): - | Antibacterial activity (growth) (Esherichia coli K12; 25 μg/ml): - | Antibacterial activity (growth) (Esherichia coli K12; 50 μg/ml): - | Antibacterial activity (growth) (Esherichia coli K12; 100 μg/ml): - | Antibacterial activity (growth) (Esherichia coli K12; 200 μg/ml): - | Antibacterial activity (growth) (Esherichia coli K12; 400 μg/ml): - | MIC (Esherichia coli K12; Esherichia coli, BHI, 37° C., read-out: MIC (minimum inhibitory concentration)): > 400 µg/mL | adherence of bacterial cells to the surface of an extracted tooth (bacterial cells): completely inhibited | Antibacterial activity (growth) ([3]; 10 μg/ml): - | Antibacterial activity (growth) ([3]; 25 μg/ml): - | Antibacterial activity (growth) ([3]; 50 μg/ml): - | Antibacterial activity (growth) ([3]; 100 μg/ml): - | Antibacterial activity (growth) ([3]; 200 μg/ml): - | Antibacterial activity (growth) ([3]; 400 μg/ml): - | MIC ([3]; 209P, Staphylococcus aureus, BHI, 37° C., read-out: MIC (minimum inhibitory concentration)): > 400 µg/mL | Antibacterial activity (growth) ([4]; 10 μg/ml): - | Antibacterial activity (growth) ([4]; 25 μg/ml): - | Antibacterial activity (growth) ([4]; 50 μg/ml): - | Antibacterial activity (growth) ([4]; 100 μg/ml): - | Antibacterial activity (growth) ([4]; 200 μg/ml): ± | Antibacterial activity (growth) ([4]; 400 μg/ml): + | MIC ([4]; ATCC9222, Streptococcus salivarius, BHI, 37° C., read-out: MIC (minimum inhibitory concentration)): 400 µg/mL (≈ 876 µM) | Antibacterial activity (growth) ([5]; 10 μg/ml): - | Antibacterial activity (growth) ([5]; 25 μg/ml): - | Antibacterial activity (growth) ([5]; 50 μg/ml): - | Antibacterial activity (growth) ([5]; 100 μg/ml): - | Antibacterial activity (growth) ([5]; 200 μg/ml): - | Antibacterial activity (growth) ([5]; 400 μg/ml): - | MIC ([5]; KM338, Pseudomonas aeruginosa, BHI, 37° C., read-out: MIC (minimum inhibitory concentration)): > 400 µg/mL
